Assay results from US8741350B2, “Taste masked pharmaceutical composition” (Boehringer Ingelheim Vetmedica GmbH, priority 2011, dated 2014).
Like-named read-outs stand apart in the source and are kept apart here.

How the values were obtained:
[1] = Water solubility (statement); type: physicochemical
[2] = background statement; cited from earlier work
[3] = Lipophilicity profile (statement); type: physicochemical; conditions: neutral versus acidic pH

Compound	water solubility in words [1]	water solubility in words [2]	lipophilicity profile in words [3]
CC#CCn1c(N2CCC[C@@H](N)C2)nc2c1c(=O)n(Cc1ncccc1C#N)c(=O)n2C.Cl [1-[(3-cyano-pyridin-2-yl)methyl]-3-methyl-7-(2-butyn-1-yl)-8-[3-(R)-amino-piperidin-1-yl]-xanthine monohydrochloride]	water soluble		
COc1ccc(CCN2CCC[C@H](CN3CCc4cc(OC)c(OC)cc4CC3=O)C2)cc1OC [Cilobradine]		highly water-soluble	
COc1ccc(CCN2CCC[C@H](CN3CCc4cc(OC)c(OC)cc4CC3=O)C2)cc1OC.Cl [cilobradine hydrochloride]		highly water-soluble	slightly more lipophilic at neutral pH values
